Assay results reported in ChEMBL document CHEMBL1134065, “Structure-Activity study of retinoid agonists bearing substituted dicarba-closo-dodecaborane. Relation between retinoidal activity and conformation of two aromatic nuclei” (2001).

Assays:
HL-60 [1] = test: HL-60 differentiation-inducing activity at a dose of 10e-9 M; assay type: functional, Homo sapiens
HL-60 [2] = test: HL-60 differentiation-inducing activity at a dose of 10e-10 M; assay type: functional, Homo sapiens
HL-60 [3] = test: HL-60 differentiation-inducing activity at a dose of 10e-8 M; assay type: functional, Homo sapiens
HL-60 [4] = test: HL-60 differentiation-inducing activity at a dose of 10e-9.5 M; assay type: functional, Homo sapiens
HL-60 [5] = test: HL-60 differentiation-inducing activity at a dose of 10e-7 M; assay type: functional, Homo sapiens
[6] = target: T1, Retinoic acid receptor gamma (Homo sapiens) (UniProt P13631); test: Agonistic activity on Retinoic acid receptor gamma by transcriptional activation in COS-1 cells incubated at 10e-9 M; assay type: functional, cell-based
T1 sequence (whole entry): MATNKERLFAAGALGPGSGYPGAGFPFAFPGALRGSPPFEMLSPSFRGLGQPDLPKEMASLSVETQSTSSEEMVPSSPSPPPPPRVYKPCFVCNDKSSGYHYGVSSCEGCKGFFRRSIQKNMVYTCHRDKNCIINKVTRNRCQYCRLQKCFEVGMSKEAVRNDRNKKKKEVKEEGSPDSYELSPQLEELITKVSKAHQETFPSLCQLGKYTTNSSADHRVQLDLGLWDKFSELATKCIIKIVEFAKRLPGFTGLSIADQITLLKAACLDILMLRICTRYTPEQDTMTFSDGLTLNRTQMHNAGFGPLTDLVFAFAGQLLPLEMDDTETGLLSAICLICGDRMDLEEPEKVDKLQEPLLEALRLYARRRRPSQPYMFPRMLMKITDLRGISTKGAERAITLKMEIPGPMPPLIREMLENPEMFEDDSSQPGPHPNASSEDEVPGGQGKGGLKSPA

[7] = target: T1, Retinoic acid receptor gamma (Homo sapiens); test: Agonistic activity on Retinoic acid receptor gamma by transcriptional activation in COS-1 cells incubated at 10e-7 M; assay type: functional, cell-based
[8] = target: T1, Retinoic acid receptor gamma (Homo sapiens); test: Agonistic activity on Retinoic acid receptor gamma by transcriptional activation in COS-1 cells incubated at 10e-8 M; assay type: functional, cell-based
[9] = target: T1, Retinoic acid receptor gamma (Homo sapiens); test: Agonistic activity on Retinoic acid receptor gamma by transcriptional activation in COS-1 cells incubated at 10e-6 M; assay type: functional, cell-based

Row | Structure (SMILES) | Differentiated cells (HL-60 [1]) | Differentiated cells (HL-60 [2]) | Differentiated cells (HL-60 [3]) | Differentiated cells (HL-60 [4]) | Differentiated cells (HL-60 [5]) | Relative luciferase response [6] | Relative luciferase response [7] | Relative luciferase response [8] | Relative luciferase response [9]
1 | CC1(C)CCC(C)(C)c2cc(NC(=O)c3ccc(C(=O)O)cc3)ccc21 [TAMIBAROTENE] | ~75% | ~5% | ~85% | ~40% | – | – | – | – | –
2 | CC1=C(/C=C/C(C)=C/C=C/C(C)=C/C(=O)O)C(C)(C)CCC1 [TRETINOIN] | ~2% | – | ~70% | – | ~85% | 6 | 14 | 12 | 30
